# Values of other authors as cited in patent US20150056314A1, “EXTRACTION METHOD FOR USE IN EXTRACTING BENEFICIAL COMPOUNDS FROM COFFEE BEANS” (Applied Food Sciences, Inc., priority 2003, published 2015).
# What was measured:
# [1] = test system: rat stomach cancer; conditions: rat (Shimizu et al J Toxicol Sci 1999)
# [2] = test system: methylazoxymethanol-induced large intestinal tumors; conditions: hamster models
structure (smiles),measurement,setting,value
O=C(/C=C/c1ccc(O)c(O)c1)O[C@@H]1C[C@](O)(C(=O)O)C[C@@H](O)[C@H]1O [chlorogenic acid],effect on rat stomach cancer,[1],chemopreventative effect
same,inhibition of methylazoxymethanol-induced large intestinal tumors,[2],inhibit
